Patent US9200301B2, “Marine streptomyces, pyranosesquiterpene compound, as well as preparation method and applications thereof” (SOUTH CHINA SEA INSTITUTE OF OCEANOLOGY, CHINESE ACADEMY OF …, priority 2011, dated 2015)
≈ marks a conversion by molar mass, not a printed value. Entries after “also recorded” stand apart in the source; their conditions may differ. Read-outs that look alike come from different tables or passages of the source.

Legend:
Vibrio anguillarum [1] = assay: Anti-Vibrio anguillarum activity test (paper sheet / dilution multiple method); assay type: cell-based
Procedure: The samples are preliminarily tested under the situation that each sample is 100 μg/tablet, and the samples are found to have better activities. Then a dilution multiple method is adopted for testing the MIC values (the diameters of the paper sheets are 6 mm, 6-10 mm means weak activity, 10-15 mm means medium activity and 15 mm or more means strong activity).

Escherichia coli = assay: Anti-Escherichia coli activity test (paper sheet / dilution multiple method); assay type: cell-based
Procedure: The samples are preliminarily tested and compared with the positive control, namely the rifampicin under the situation that each sample is 100 μg/tablet and the rifampicin taken as a standard product is 1 μg/tablet.

[2] = Artemia larva lethal test; assay type: in vivo; conditions: Artemia (brine shrimp) larvae, in vivo; against Artemia larvae
Procedure: (§1) Hatching of Artemia larvae: placing 100 mg of Artemia eggs in a 500 mL beaker, adding 400 mL of artificial sea water, inflating air slowly by using a small inflator pump, hatching at room temperature for 24 h, removing egg shells and the unhatched eggs, and continuously culturing the Artemia larvae for 24 h for later use.
(§2) The biological lethal method of the Artemia larvae is as follows: taking a 96-well cell culture plate according to a Solis improvement method, and adding 2004, of artificial sea water solution containing 10-15 Artemia in each well to prepare a test culture plate. […] A blank control group and sample groups of each concentration are respectively provided with three parallel holes, 54, of the sample solvent (DMSO) is added for the blank control group, 54, of the sample solutions of different concentrations are respectively added into the sample groups, and the final concentrations are 500 μg/mL, 50 μg/mL and 5 μg/mL respectively. The culture is performed at room temperature for 24 h, and then the number of dead individuals of the Artemia larvae is detected and counted under a binocular dissecting microscope. The biological lethal activity of the Artemia larvae is represented by corrected mortality and is calculated according to the following formula: Corrected mortality=(survival rate of control group−survival rate of treated group)/survival rate of control group×100%
(§3) The three concentrations and the corresponding corrected mortalities are input into a computer for respectively calculating LC50 and 95% confidence interval thereof.

Artemia larvae = assay: Artemia larva lethal test; assay type: in vivo; conditions: for lethal Artemia activity (in words): in vivo; for LC50: Artemia larvae, 24 h at room temperature, from corrected mortality; for LC50 value: against Artemia larvae
Procedure: as §1, §2, §3

Vibrio anguillarum [3] = conditions: cited from earlier work; for MIC: against Vibrio anguillarum, values of compounds 2, 3 and 4 referred to Fdhila F et al., Journal of Natural Products, 2003, 66 (10): 1299-1301; for activity against Vibrio anguillarum (in words): compounds 2-4, based on Fdhila F et al.

Structure (SMILES) | MIC (Vibrio anguillarum [1]; against Vibrio anguillarum, LB medium, 37° C., observed after 24 h) | inhibitory activity against Vibrio anguillarum (in words) (Vibrio anguillarum [1]; compound 1) | inhibitory activity against Escherichia coli (in words) (Escherichia coli) | MIC (Escherichia coli; against Escherichia coli, LB medium, 37° C., observed after 24 h, read-out: MIC) | MIC (Escherichia coli; anti-Escherichia coli activity, read-out: MIC (minimal inhibitory concentration) value) | LC50 at 24 h [2] | lethal Artemia activity (in words) (Artemia larvae) | LC50 (Artemia larvae) | LC50 value (Artemia larvae) | MIC (Vibrio anguillarum [3]) | activity against Vibrio anguillarum (in words) (Vibrio anguillarum [3])
CCCCCC/C=C/CCC1C=CCC(=O)O1 (stereo not shown) [compound 1] | > 100 µg/mL | weaker | better inhibitory activity | 1.58 µg/mL (≈ 6.68 µM) | 1.58 µg/mL (≈ 6.68 µM) | 3.25 µg/mL (≈ 13.8 µM) | better lethal Artemia activity; also recorded: very good |  |  |  | 
CC(C)C[C@H]1NC(=O)[C@H]2CCCN2C1=O [compound 3, Cyclo(D)-Pro-(D)-Leu] |  |  | weaker |  |  |  | better lethal Artemia activity | 87.63 µg/mL (≈ 417 µM) | 87.63 µg/mL (≈ 417 µM) | 0.04 µg/mL (≈ 0.19 µM) | better inhibitory activity; also recorded: great bactericidal activity
O=C1N[C@H](Cc2ccccc2)C(=O)N2C[C@@H](O)C[C@H]12 (relative stereo) [compound 4, Cyclo(D)-trans-4-OH-Pro-(D)-Phe] |  |  | weaker |  |  |  | better lethal Artemia activity | 13.45 µg/mL (≈ 51.7 µM) | 13.45 µg/mL (≈ 51.7 µM) | 0.07 µg/mL (≈ 0.269 µM) | better inhibitory activity; also recorded: great bactericidal activity
CC[C@@H](C)[C@H]1NC(=O)[C@H]2CCCN2C1=O [compound 2, Cyclo(D)-Pro-(D)-Ile] |  |  | weaker |  |  |  | better lethal Artemia activity | 55.67 µg/mL (≈ 265 µM) | 55.67 µg/mL (≈ 265 µM) | 0.05 µg/mL (≈ 0.238 µM) | better inhibitory activity; also recorded: great bactericidal activity
